Patent US20200397796A1, “METHODS OF TREATMENT OF CANCER COMPRISING CHK1 INHIBITORS” (SIERRA ONCOLOGY, INC., priority 2018, published 2020)

What was measured:
CYP 2C9 = CYP 2C9 (Homo sapiens, UniProt P11712); assay: CYP inhibition, 2C9; format: in vitro ADME; conditions: highest concentration investigated
Single dose PK, dog = format: in vivo
Protocol: (§1) The PK of SRA737 have been determined in the mouse, rat, dog and monkey following oral and IV administration (Table 3). […] An acceptable terminal elimination t1/2 was also observed in each species. […] The plasma protein binding of SRA737 at 1 and 10 μM was examined in mouse, minipig, monkey and human plasma using ultracentrifugation and in dog plasma (10 μM) using rapid equilibrium dialysis.

Calu6 human (NSCLC) = assay: In vivo efficacy, Calu6 xenograft model; set-up: species or system mouse; conditions: data not shown
Protocol: (§2) A program of in vivo efficacy studies was performed to assess the activity of SRA737 in combination with genotoxic chemotherapy and targeted agents, and as monotherapy.
(§3) One of these models also carried a MYCN amplification. A fourth HGSOC PDX model with partial resistance to PARPi was also sensitive to high dose SRA737 monotherapy.

[1] = GLP 28-day repeat oral dose toxicity and toxicokinetics, monkey; format: in vivo; conditions: for AUC(0-t) / Cmax / half-life: po, daily dosing for 28 days
From the text: Reference source not found.6.

rat hepatocytes = assay: Stability in cryopreserved hepatocytes, rat; format: in vitro ADME; conditions: 10 μM, after 4 hours of incubation
Protocol: The formation of SRA737-related metabolites was determined in cryopreserved hepatocytes from human, mouse, rat, dog, minipig and monkey samples after incubation with SRA737 at a nominal concentration of 10 μM for up to 4 hours. […] In the human hepatocyte preparation, approximately 67% of the parent remained after 4 hours of incubation compared to 75% and 7% in the rat and minipig preparations, respectively. Eight human SRA737 metabolites were observed. All SRA737 metabolites formed by human hepatocytes were also formed by monkey hepatocytes. Six metabolites were present at equal or greater abundance in the monkey.

CYP 2C19 = CYP 2C19 (Homo sapiens, UniProt P33261); assay: CYP inhibition, 2C19; format: in vitro ADME; conditions: highest concentration investigated
MOLM-13 model of AML = assay: In vivo efficacy, MOLM-13 model; set-up: species or system mouse; conditions: data not shown
Protocol: as §2, §3

MDA-MB-231 model of TNBC = assay: In vivo efficacy, MDA-MB-231 model; set-up: species or system mouse; conditions: data not shown
Protocol: as §2, §3

Pan02 = assay: In vivo efficacy, Pan02 syngeneic mouse model; conditions: in combination with a PD1/PD-L1 inhibitor; data not shown
Protocol: as §2, §3

Single dose PK, rat = format: in vivo
Protocol: as §1

[2] = test system: CHK1 S296 autophosphorylation; assay: Gemcitabine induced CHK1 S296 autophosphorylation in HT29 tumor xenografts (western blotting); format: in vivo, mouse; conditions: oral, 24 hours following gemcitabine 100 mg/kg IV
Protocol: The effect of SRA737 on Gemcitabine induced CHK1 S296 autophosphorylation was assessed as described in Walton et al. (Oncotarget. 2016 Jan. 19; 7(3): 2329-2342), herein incorporated by reference for all it teaches. Briefly, mice bearing HT29 tumor xenografts were administered (i) vehicle control or (ii) gemcitabine (100 mg/kg in saline, IV) or (iii) a combination of SRA737 (12.5, 25, 50 or 100 mg/kg in DTPW, oral) and gemcitabine (100 mg/kg) with SRA737 administered 24 hours following gemcitabine administration (n=3 per time point per treatment). […] Exposure in the tumor was greater than 10-fold higher than in plasma. The circulating plasma concentration at this 24-hour timepoint corresponded to a free drug concentration of approximately 6 nM (2 ng/mL) based on plasma protein binding in mice of 94%.

[3] = Excretion in urine and feces, rats; format: in vivo; conditions: rat; over 24 hours
Protocol: The excretion of SRA737 has been studied in mice and rats administered SRA737 at either 5 mg/kg IV or 10 mg/kg orally. Urine and feces were collected for a 24-hour period after dosing. In mice, renal excretion of intact SRA737 was consistently low (less than 10% of dose) after both oral and IV administration. Following IV administration of SRA737, less than 8% of the dose was recovered as intact drug in the feces while after oral administration this figure was less than 3%. Excretion of intact SRA737 was lower in the rat than in the mouse with <1% of dose excreted renally over 24 hours and less than 1.5% of dose excreted into the feces over 24 hours.

CYP 1A2 = CYP 1A2 (Homo sapiens, UniProt P05177); assay: CYP inhibition, 1A2; format: in vitro ADME; conditions: highest concentration investigated
MC38 = assay: In vivo efficacy, MC38 syngeneic mouse model; conditions: in combination with a PD1/PD-L1 inhibitor; data not shown
Protocol: as §2, §3

[4] = in vivo, Dog IV 1 mg/kg single dose
[5] = in vivo, Dog oral 5 mg/kg single dose
[6] = in vivo, Monkey Female, 2 mg/kg/day
[7] = in vivo, Monkey Female, 10 mg/kg/day
[8] = in vivo, Monkey Female, 20 mg/kg/day (NOAEL)
[9] = in vivo, Monkey Male, 2 mg/kg/day
[10] = in vivo, Monkey Male, 10 mg/kg/day
[11] = in vivo, Monkey Male, 20 mg/kg/day (NOAEL)
[12] = in vivo, Rat IV 5 mg/kg single dose
[13] = in vivo, Rat oral 10 mg/kg single dose

CYP 2C9, sequence (P11712 whole entry): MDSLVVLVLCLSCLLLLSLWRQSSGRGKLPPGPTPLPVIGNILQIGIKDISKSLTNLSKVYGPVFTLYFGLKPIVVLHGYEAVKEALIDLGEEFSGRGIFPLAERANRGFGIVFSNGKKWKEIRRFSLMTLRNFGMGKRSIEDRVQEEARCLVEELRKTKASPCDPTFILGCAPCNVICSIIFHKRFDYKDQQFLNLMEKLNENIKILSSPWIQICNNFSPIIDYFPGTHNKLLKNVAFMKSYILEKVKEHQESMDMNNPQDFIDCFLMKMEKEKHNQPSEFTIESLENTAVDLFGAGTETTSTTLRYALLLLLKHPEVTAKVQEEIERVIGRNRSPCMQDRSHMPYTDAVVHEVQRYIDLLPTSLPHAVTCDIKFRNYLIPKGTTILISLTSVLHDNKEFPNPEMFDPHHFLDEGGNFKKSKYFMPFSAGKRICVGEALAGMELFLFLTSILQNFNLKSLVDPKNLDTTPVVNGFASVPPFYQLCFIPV
CYP 1A2, sequence (P05177 whole entry): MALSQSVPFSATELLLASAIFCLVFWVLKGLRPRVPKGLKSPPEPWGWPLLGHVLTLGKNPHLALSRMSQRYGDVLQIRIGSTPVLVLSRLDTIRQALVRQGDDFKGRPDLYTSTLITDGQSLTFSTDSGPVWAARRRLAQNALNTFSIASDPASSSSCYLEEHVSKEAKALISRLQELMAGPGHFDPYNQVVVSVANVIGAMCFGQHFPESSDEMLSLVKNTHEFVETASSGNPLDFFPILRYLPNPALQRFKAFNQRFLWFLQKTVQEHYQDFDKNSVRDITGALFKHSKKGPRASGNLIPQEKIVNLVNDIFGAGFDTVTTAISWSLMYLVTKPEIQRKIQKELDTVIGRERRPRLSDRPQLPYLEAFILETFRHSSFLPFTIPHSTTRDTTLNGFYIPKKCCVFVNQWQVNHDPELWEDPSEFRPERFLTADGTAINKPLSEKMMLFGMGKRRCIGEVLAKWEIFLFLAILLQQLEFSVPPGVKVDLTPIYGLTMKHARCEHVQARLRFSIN
CYP 2C19, sequence (P33261 whole entry): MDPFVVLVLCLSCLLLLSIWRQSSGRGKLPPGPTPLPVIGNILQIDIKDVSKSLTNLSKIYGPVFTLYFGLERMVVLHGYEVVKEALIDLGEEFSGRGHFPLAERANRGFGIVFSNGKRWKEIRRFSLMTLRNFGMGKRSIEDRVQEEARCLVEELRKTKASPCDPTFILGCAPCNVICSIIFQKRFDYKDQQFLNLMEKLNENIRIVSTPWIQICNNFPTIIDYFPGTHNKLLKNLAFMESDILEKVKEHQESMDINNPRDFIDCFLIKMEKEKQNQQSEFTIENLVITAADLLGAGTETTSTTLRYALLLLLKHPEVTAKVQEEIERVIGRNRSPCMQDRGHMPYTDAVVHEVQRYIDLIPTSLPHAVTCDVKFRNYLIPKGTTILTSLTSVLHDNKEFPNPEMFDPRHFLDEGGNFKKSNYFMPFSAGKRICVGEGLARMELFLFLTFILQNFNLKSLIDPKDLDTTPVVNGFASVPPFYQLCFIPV

N#Cc1cnc(Nc2cc(NCC3CNCCO3)c(C(F)(F)F)cn2)cn1 (stereo not drawn) [SRA737, 5-[[4-[[morpholin-2-yl]methylamino]-5-(trifluoromethyl)-2-pyridyl]amino]pyrazine-2-carbonitrile]
IC50 (CYP 2C9): 10 to 50 µM
Foral (Single dose PK, dog; Dog oral 5 mg/kg single dose): 86%
AUC(0-t) (Single dose PK, dog; [4]): 200 ng·h/mL
half-life (Single dose PK, dog; [4]): 168 min
AUC(0-t) (Single dose PK, dog; [5]): 850 ng·h/mL
Cmax (Single dose PK, dog; [5]): 130 ng/mL
Tmax (Single dose PK, dog; [5]): 1 to 3 h
half-life (Single dose PK, dog; [5]): 210 min
antitumor activity (Calu6 human (NSCLC); in combination with standard-dose gemcitabine): Significant, dose-dependent antitumor activity
synergy (Calu6 human (NSCLC); with gemcitabine and carboplatin): Synergy
AUC(0-t) [1, 6]: 2580 ng·h/mL
Cmax [1, 6]: 519 ng/mL
half-life [1, 6]: 524 min
AUC(0-t) [1, 7]: 12900 ng·h/mL
Cmax [1, 7]: 1870 ng/mL
half-life [1, 7]: 395 min
AUC(0-t) [1, 8]: 24200 ng·h/mL
Cmax [1, 8]: 2320 ng/mL
half-life [1, 8]: 360 min
AUC(0-t) [1, 9]: 3240 ng·h/mL
Cmax [1, 9]: 365 ng/mL
half-life [1, 9]: 404 min
AUC(0-t) [1, 10]: 17900 ng·h/mL
Cmax [1, 10]: 2070 ng/mL
half-life [1, 10]: 500 min
AUC(0-t) [1, 11]: 20700 ng·h/mL
Cmax [1, 11]: 3170 ng/mL
half-life [1, 11]: 410 min
NOAEL at 28 days ([1]; in vivo, monkey, 28-day repeat oral dose, highest dose tested): 20 mg/kg/day
NOAEL ([1]; monkey, 28-day repeat oral dose, highest dose tested): 240 mg/m^2/day
toxicological findings ([1]; pivotal monkey toxicity study): absence of toxicological findings
parent remained (rat hepatocytes): 75%
IC50 (CYP 2C19): 10 to 50 µM
single agent efficacy (MOLM-13 model of AML): single agent efficacy
single agent efficacy (MDA-MB-231 model of TNBC): single agent efficacy
antitumor activity (Pan02): Significant antitumor activity
Foral (Single dose PK, rat; Rat oral 10 mg/kg single dose): 42%
AUC(0-t) (Single dose PK, rat; [12]): 1380 ng·h/mL
half-life (Single dose PK, rat; [12]): 60 min
AUC(0-t) (Single dose PK, rat; [13]): 1170 ng·h/mL
Cmax (Single dose PK, rat; [13]): 190 ng/mL
Tmax (Single dose PK, rat; [13]): 2 h
half-life (Single dose PK, rat; [13]): 276 min
SRA737 doses at which inhibition of pS296 Chk1 was observed [2]: greater than or equal to 12.5 mg/kg
intact SRA737 excreted into the feces [3]: less than 1.5 % of dose
intact SRA737 excreted renally [3]: < 1 % of dose
IC50 (CYP 1A2): 10 to 50 µM
antitumor activity (MC38): Significant antitumor activity
